Results taken from PMC12293521 (Current Issues in Molecular Biology, 2025).

Tests used:
[1] = Ferric-reducing antioxidant power (FRAP) assay; details: concentration for 50% of maximal ferric-reducing capacity; mean ± SD, triplicate
Procedure: The antioxidant capacity of the tested compounds was evaluated using the ferric-reducing antioxidant power (FRAP) assay, based on the reduction of ferric-tripyridyltriazine (Fe^3+-TPTZ) complex to its ferrous form (Fe^2+), resulting in a blue-colored product with a maximum absorbance at 593 nm. The assay was performed according to the modified method of Benzie and Strain [13], with modifications for microplate format and adjusted concentration ranges according to Rodrigues et al.. The FRAP working solution was freshly prepared by mixing 300 mM acetate buffer (pH 3.6), 10 mM TPTZ in 40 mM HCl, and 20 mM FeCl3·6H2O in a 10:1:1 volume ratio. The mixture was warmed to 37 °C before use to ensure optimal reaction conditions. For each reaction, 180 µL of the freshly prepared FRAP reagent was added to a well of a 96-well microplate, followed by 20 µL of the test compound at different concentrations (1–200 µg/mL) prepared in methanol. The mixture was incubated at 37 °C for 30 min. The increase in absorbance was measured at 593 nm using a microplate reader. […] All measurements were performed in triplicate and presented as the mean ± standard deviation.

[2] = ABTS radical-scavenging assay; details: mean ± SD
Procedure: The ABTS assay was determined according to Elbouzidi et al., with some modifications. The stock solutions included 7.4 mM ABTS and 2.6 mM potassium persulfate. ABTS radical cation was prepared by mixing the two stock solutions in equal quantities and allowed to stand for 16 h at room temperature in the dark. And then, ABTS radical solution was adjusted with phosphate-buffered saline (pH 7.4) to an absorbance of 0.7–0.8 at 734 nm. For this assay, 190 μL of ABTS radical solution was mixed with 10 μL of each test sample solution in 96-well plates. After 60 min, the decrease of absorbance was measured at 734 nm using a microplate reader (Thermo Fisher Scientific Inc., Waltham, MA, USA). The standard curve was linear between 0.025 and 0.9 mM Trolox. […] Additional dilution was needed if the ABTS value measured was over the linear range of the standard curve.

[3] = biological target: α-glucosidase enzyme from Saccharomyces cerevisiae; assay: α-glucosidase inhibition assay (PNP-G substrate); type: biochemical; details: experimental; means ± SD of three independent replicates
Procedure: (§1) Aldose Reductase Inhibitor Screening Kit (Biovision, Milpitas, CA, USA) was used for the aldose reductase inhibition assay.
The activity of the compounds was assessed spectrophotometrically according to Li et al., with slight modifications. In a volume of 100 µL of 40 mM phosphate buffer (pH 6.9), different concentrations (1, 5, 10, 50, 100, 200 µg/mL) of the compounds were prepared. The tested samples were added to a reaction mixture in a 96-well microplate containing 20 µL of the phosphate buffer and 20 µL of 5 mM p-nitrophenyl α -D-glucopyranoside (PNP-G) in the buffer. […] The IC50 for test compounds as well as the standard was calculated and presented.

[4] = biological target: T1, α-amylase from porcine pancreas (Sus scrofa, UniProt P00690); assay: α-amylase inhibition assay (CNPG3 substrate); type: biochemical; details: experimental; means ± SD of three independent replicates; read-out: AAI IC50 (α-amylase inhibition) (converted)
T1 construct: purchased Sigma Aldrich; host or cells: porcine pancreas
T1 sequence (P00690 16-511): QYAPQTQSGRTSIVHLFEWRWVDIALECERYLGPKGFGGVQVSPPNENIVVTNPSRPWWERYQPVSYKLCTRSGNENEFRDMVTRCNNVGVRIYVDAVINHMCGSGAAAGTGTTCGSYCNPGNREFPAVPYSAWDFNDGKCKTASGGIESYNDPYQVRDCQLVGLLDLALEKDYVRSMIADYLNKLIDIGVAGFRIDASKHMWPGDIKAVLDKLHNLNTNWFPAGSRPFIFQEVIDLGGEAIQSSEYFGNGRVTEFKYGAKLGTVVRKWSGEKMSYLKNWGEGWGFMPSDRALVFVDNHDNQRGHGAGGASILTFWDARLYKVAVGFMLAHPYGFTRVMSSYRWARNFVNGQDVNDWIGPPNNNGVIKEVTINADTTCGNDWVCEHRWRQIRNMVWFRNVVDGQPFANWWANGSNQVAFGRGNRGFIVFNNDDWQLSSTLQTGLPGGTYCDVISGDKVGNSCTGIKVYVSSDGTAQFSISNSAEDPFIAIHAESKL
Procedure: as §1
A pre-incubation mixture was prepared which contained 40 mM phosphate buffer (pH 6.9) together with different concentrations (1, 5, 10, 50, 100, 200 µg/mL) of the compounds. A 0.2 U of α-amylase enzyme was added to this mixture, and the plate was then incubated for 15 min at 37 °C. Then, 2-chloro-4-nitrophenyl maltotrioside (CNPG3) substrate was added, where the final concentration was 0.9 µmole/mL. […] A control which was devoid of the compounds was also run in parallel.

aldose reductase = biological target: T2, aldose reductase (Homo sapiens, UniProt P15121); assay: aldose reductase inhibition assay (Aldose Reductase Inhibitor Screening Kit); type: biochemical; details: experimental; means ± SD of three independent replicates; read-out: ALR IC50 (aldose reductase inhibition) (converted)
T2 construct: purchased Biovision, Milpitas, CA, USA
Procedure: Aldose Reductase Inhibitor Screening Kit (Biovision, Milpitas, CA, USA) was used for the aldose reductase inhibition assay. Determination of the aldose reductase inhibitory effectiveness of the investigated compounds was performed kinetically using the Aldose Reductase Inhibitor Screening Kit (Biovision, Milpitas, CA, USA), according to the manufacturer's protocol. The decrease in the absorption of NADPH at 340 nm was measured in a mixture containing NADPH, the enzyme, and its substrate, […], in addition to test samples [21]. […] After incubation, 40 μL of enzyme substrate in assay buffer was added, and the absorbance was measured at 340 nm kinetically for 60-90 min at 37 °C. A background control free from the enzyme was run and subtracted from the readings. The IC50 was calculated and presented for the samples and the standard.

[5] = biological target: T3, porcine pancreatic lipase (Sus scrofa, UniProt P00591); assay: porcine pancreatic lipase inhibition assay (PNPB substrate); type: biochemical; details: experimental; means ± SD of three independent replicates; read-out: LIP IC50 (lipase inhibition) (converted)
T3 construct: purchased Sigma Aldrich
T3 sequence (P00591 1-450): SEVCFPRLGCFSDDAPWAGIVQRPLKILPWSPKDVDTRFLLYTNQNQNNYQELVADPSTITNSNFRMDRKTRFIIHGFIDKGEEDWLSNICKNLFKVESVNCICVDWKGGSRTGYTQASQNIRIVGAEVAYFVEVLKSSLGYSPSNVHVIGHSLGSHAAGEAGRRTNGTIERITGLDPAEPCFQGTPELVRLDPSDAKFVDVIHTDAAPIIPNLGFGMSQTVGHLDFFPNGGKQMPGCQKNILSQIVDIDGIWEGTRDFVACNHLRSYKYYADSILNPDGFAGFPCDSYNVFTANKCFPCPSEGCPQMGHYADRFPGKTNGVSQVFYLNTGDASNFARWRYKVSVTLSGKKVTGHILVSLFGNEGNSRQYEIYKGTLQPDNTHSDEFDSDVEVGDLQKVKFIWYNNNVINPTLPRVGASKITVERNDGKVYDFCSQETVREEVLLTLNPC
Procedure: as §1
The porcine pancreatic lipase inhibition assay was utilized in this work, with modifications made based on a previous study. A stock solution of each compound at 1 mg/mL in 10% DMSO was used to prepare […] with concentrations 1, 5, 10, 50, 100, 200 µg/mL by means of dilution with methanol. Just before usage, the pancreatic lipase enzyme was freshly produced as a 1 mg/mL stock solution. […] In individual test tubes, 0.1 mL of porcine pancreatic lipase (1 mg/mL) was mixed with 0.2 mL of each compound concentration. To achieve a final volume of 1 mL, the Tri-HCl solution (pH 7.4) was added, and the mixtures were incubated at 25 °C for 15 min. Following the incubation, 0.1 mL of PNPB solution was introduced to each test tube. The mixtures were once again incubated for 30 min at 37 °C. […] All tests were conducted in triplicate, and the inhibition was calculated as per Equation (1).(1) %Lipase Inhibition=AB−AE/AB×100 where AB is the recorded absorbance of the blank solution, and AE is the recorded absorbance of the compound’s solution.

[6] = Cupric ion-reducing antioxidant capacity (CUPRAC) assay; details: concentration for 50% of maximal cupric-reducing activity; mean ± SD, triplicate
Procedure: The total antioxidant capacity of the tested monoterpenes was also assessed using the Cupric ion-reducing antioxidant capacity (CUPRAC) assay, which measures the ability of antioxidants to reduce the Cu^2+-neocuproine complex to the stable-colored Cu^+-neocuproine chelate, absorbing at 450 nm. The assay was carried out following the protocol provided by the CUPRAC assay kit (Bioquochem, Asturias, Spain), with slight modifications to accommodate the tested compounds according to Salem et al.. The CUPRAC working solution consisted of a mixture of copper (II) chloride (10 mM), neocuproine (7.5 mM), and ammonium acetate buffer (1 M, pH 7.0) in a 1:1:1 volume ratio. For the assay, 40 µL of each test solution (prepared in methanol at concentrations ranging from 1 to 200 µg/mL) was added to 200 µL of the CUPRAC working solution in a well of a 96-well plate. The plate was incubated at room temperature for 30 min in the dark to allow full color development. The absorbance was then measured at 450 nm using a microplate spectrophotometer (Thermo Fisher Scientific Inc., Waltham, MA, USA). […] All tests were conducted in triplicate, and results are presented as mean ± SD.

Row | Compound | FRAP EC50 [1] [µg/mL] | ABTS IC50 [2] [µg/mL] | AGI IC50 (α-glucosidase inhibition) [3] [µg/mL] | IC50 [4] [µM] | IC50 (aldose reductase) [µM] | IC50 [5] [µM] | CUPRAC IC50 [6] [µg/mL]
1 | C=CCc1ccc(O)c(OC)c1 [Eugenol] | 78.55 ± 8.74 | 19.42 ± 0.58 | 84.93 ± 6.14 | 339 | 241 | 388 | 39.53 ± 2.83
2 | CC1=CCC(C(C)(C)O)CC1 (stereo not drawn) [Terpineol, α-terpineol] | 389.01 ± 9.53 | 476.49 ± 19.93 | 340.42 ± 23.19 | 1740 | 899 | 392 | 

Continued, in another order:

Row | FRAP EC50 [1] [µg/mL] | ABTS IC50 [2] [µg/mL] | AGI IC50 (α-glucosidase inhibition) [3] [µg/mL] | IC50 [4] [µM] | IC50 (aldose reductase) [µM] | IC50 [5] [µM] | Compound | CUPRAC IC50 [6] [µg/mL]
3 | 56.92 ± 2.99 | 136.78 ± 5.97 |  |  |  |  | O=C1O[C@H]([C@@H](O)CO)C(O)=C1O [AA, ascorbic acid, reference compound] | 
4 | 63.88 ± 4.83 | 153.55 ± 9.65 |  |  |  |  | Cc1cc(C(C)(C)C)c(O)c(C(C)(C)C)c1 [BHT, butylated hydroxytoluene, reference compound] | 
5 | 1459.83 ± 39.96 | 755.82 ± 67.30 | 484.95 ± 17.65 | 2340 | 1710 | 3540 | CC12CCC(CC1=O)C2(C)C (centres unmarked) [Camphor] | 
